Tests used:
[1] = format: physicochemical
Method: The boiling points reported in Table 1 were determined using the procedures outlined in ASTM E 1719-97 “Standard Test Method for Vapor Pressure of Liquids by Ebulliometry.” First, vapor pressure was measured, and then the boiling point was calculated as described in section 10 of ASTM method […]-97.

[2] = Dielectric constant (ASTM D150-11, broadband dielectric spectrometer); format: physicochemical
Method: Dielectric constants were measured using an Alpha-A High Temperature Broadband Dielectric Spectrometer (Novocontrol Technologies, Montabaur, Germany) in accordance with ASTM D150-11, “Standard Test Methods for AC Loss Characteristics and Permittivity (Dielectric Constant) of Solid Electrical Insulation.” The parallel plate electrode configuration was selected for this measurement. The sample cell of parallel plates, an Agilent 16452A liquid test fixture consisting of 38 mm diameter parallel plates (Keysight Technologies, Santa Rosa, CA, US) was interfaced to the Alpha-A mainframe while utilizing the ZG2 Dielectric/Impedance General Purpose Interface available from Novocontrol Technologies. Each sample was prepared between parallel plate electrodes with a spacing, d, (typically, d=1 mm) and the complex permittivity (dielectric constant and loss) were evaluated from the phase sensitive measurement of the electrodes voltage difference (Vs) and current (Is). Frequency domain measurements were carried out at discrete frequencies from 0.00001 Hz to 1 MHz. Impedances from 10 milliohms up to 1×10^14 ohms were measured up to a maximum of 4.2 volts AC. For this experiment, however, a fixed AC voltage of 1.0 volts was used. The DC conductivity (the inverse of volume resistivity) can also be extracted from an optimized broadband dielectric relaxation fit function that contains at least one term of the low frequency Havrrilak Negami dielectric relaxation function and one separate frequency dependent conductivity term.

[3] = Liquid dielectric breakdown strength (ASTM D877-87); format: physicochemical; settings: 2.5 mm gap, 60 Hz
Method: The liquid dielectric breakdown strength measurements were performed in accordance with ASTM […]-87(1995), “Standard Test Method for Dielectric Breakdown Voltage of Insulating Liquids.” Disk electrodes 25mm in diameter, with 2.5 mm (0.10'') spacing between the electrodes, were utilized with a Phenix Technologies Model LD 60 that is specifically designed for testing in the 7-60 kV, 60 Hz (higher voltage) breakdown range. For this experiment, a frequency of 60 Hz and a ramp rate of 500 volts per second were utilized, as is typical.

[4] = Kinematic viscosity (ASTM D445-94e1); format: physicochemical
Method: Kinematic viscosity was determined in accordance with ASTM D445-94e1 “Standard Test Method for Kinematic Viscosity of Transparent and Opaque Liquids (the Calculation of Dynamic Viscosity)”, except the bath temperature was controlled to ±0.1° C., using a ViscoSystem AVS 350 viscosity timer (Schott Instruments GmbH, Hattenbergstraße 10 55122 Mainz Germany) and Hagenbach-corrected 545-03, 545-13 or 545-20 Ubbelohde viscometers (Cannon Instruments Company, Box 812, State College, PA). For temperatures below 0° C., a Lawler temperature control bath was used.

[5] = Density (DDM 2911 plus Automatic Density Meter); format: physicochemical
Method: Density was measured using DDM 2911 plus Automatic Density Meter. Before measurement, the fluid was briefly degassed in the syringe by stoppering the syringe tip and pulling on the plunger to release bubbles.

[6] = Flash point, small scale closed cup (ASTM D-3278-96 e-1); format: physicochemical; settings: no flash point = non-flammable
[7] = Log KOW octanol/water partition coefficient by HPLC (OECD 117); format: physicochemical; settings: HPLC method
Method: Values of Log KOW (octanol/water partition coefficients) were determined by HPLC using the method described in Organization for Economic Cooperation and Development (OECD) Test Method 117, “Partition Coefficient (n-octanol/water), HPLC Method.”

[8] = format: physicochemical; settings: 200±2° C., 31.5 days, sealed borosilicate tube
Method: To evaluate thermal stability, a flame-sealed borosilicate glass tube (50 mm outer diameter, 0.4 mm wall thickness) containing Example 1 [1.0 g, isomeric mixture of 4-Cl(C6H4)O(C9F17)] was completely submerged in a temperature-controlled oil bath at 200±2° C. for 31.5 days.

Row | SMILES | Boiling Point [1] | Dielectric Constant @ 1 kHz [2] | Dielectric strength [3] | Viscosity at 0° C. [4] | Density at 25° C. [5] | Flash Point [6] | Log Kow [7] | Boiling point above non-chlorinated analog [1] | 4-Cl(C6H4)O(C9F17) isomers by GC-FID, before and after heating [8]
1 | F/C(=C(/C(F)(F)F)C(F)(Oc1ccccc1)C(F)(F)C(F)(F)F)C(F)(C(F)(F)F)C(F)(F)F (centres unmarked) [CE1, (E)-((1,1,1,2,2,3,5,6,7,7,7-Undecafluoro-4,6-bis(trifluoromethyl)hept-4-en-3-yl)oxy)benzene] | 201 °C | 4.42 | 38.1 kV | 8.7 cSt | 1.62 g/mL | None | >6.4 | – | –
2 | FC(F)(F)C(=C(Oc1ccccc1)C(F)(F)C(F)(F)F)C(F)(F)F [CE2] | 169 °C | 5.16 | 31.1 kV | 3.6 cSt | 1.51 g/mL | None | 5.5 | – | –
3 | F/C(=C(/C(F)(F)F)C(F)(Oc1ccc(F)cc1)C(F)(F)C(F)(F)F)C(F)(C(F)(F)F)C(F)(F)F (centres unmarked) [CE3, (E)-1-fluoro-4-((1,1,1,2,2,3,5,6,7,7,7-undecafluoro-4,6-bis(trifluoromethyl)hept-4-en-3-yl)oxy)benzene] | 206 °C | 2.63 | 38.1 kV | 11.8 cSt | 1.68 g/mL | None | >6.4 | 5 °C | –
4 | F/C(=C(/C(F)(F)F)C(F)(Oc1ccc(Cl)cc1)C(F)(F)C(F)(F)F)C(F)(C(F)(F)F)C(F)(F)F (centres unmarked) [Ex. 1, (E)-1-chloro-4-((1,1,1,2,2,3,5,6,7,7,7-undecafluoro-4,6-bis(trifluoromethyl)hept-4-en-3-yl)oxy)benzene] | 223 °C | 2.57 | 46.6 kV | 24.1 cSt | 1.65 g/mL | None | >6.4 | at least 22 °C | 99.9±0.1%
5 | FC(F)(F)C(=C(Oc1ccc(Cl)cc1)C(F)(F)C(F)(F)F)C(F)(F)F [Ex. 2, 1-chloro-4-((1,1,1,4,4,5,5,5-octafluoro-2-(trifluoromethyl)pent-2-en-3-yl)oxy)benzene] | 193 °C | 2.76 | 50.7 kV | 8.4 cSt | 1.58 g/mL | None | – | at least 22 °C | –
6 | F/C(=C(/C(F)(F)F)C(F)(Oc1cc(Cl)cc(Cl)c1)C(F)(F)C(F)(F)F)C(F)(C(F)(F)F)C(F)(F)F (centres unmarked) [Ex. 3, (E)-1,3-dichloro-5-((1,1,1,2,2,3,5,6,7,7,7-undecafluoro-4,6-bis(trifluoromethyl)hept-4-en-3-yl)oxy)benzene] | 237 °C | 2.54 | – | 40.8 cSt | 1.70 g/mL | None | – | 35 °C | –
